Results taken from paper PMC4804635 (European journal of pharmacology, 2016).

Legend:
[1] = target: Recombinant Human ACE2 (rhACE2) (Homo sapiens, UniProt Q9BYF1); assay: ACE2 activity assay with recombinant human ACE2; assay type: biochemical
[2] = target: Recombinant Human ACE (rhACE) (Homo sapiens, UniProt P12821); assay: ACE activity assay with recombinant human ACE; assay type: biochemical
[3] = target: ACE2 in murine heart (Mus musculus, UniProt Q8R0I0); assay: ACE2 activity assay in murine heart homogenate; assay type: biochemical
[4] = target: T1, ACE in murine heart (Mus musculus, UniProt P09470); assay: ACE activity assay in murine heart homogenate; assay type: biochemical
T1 sequence (P09470 35-1312): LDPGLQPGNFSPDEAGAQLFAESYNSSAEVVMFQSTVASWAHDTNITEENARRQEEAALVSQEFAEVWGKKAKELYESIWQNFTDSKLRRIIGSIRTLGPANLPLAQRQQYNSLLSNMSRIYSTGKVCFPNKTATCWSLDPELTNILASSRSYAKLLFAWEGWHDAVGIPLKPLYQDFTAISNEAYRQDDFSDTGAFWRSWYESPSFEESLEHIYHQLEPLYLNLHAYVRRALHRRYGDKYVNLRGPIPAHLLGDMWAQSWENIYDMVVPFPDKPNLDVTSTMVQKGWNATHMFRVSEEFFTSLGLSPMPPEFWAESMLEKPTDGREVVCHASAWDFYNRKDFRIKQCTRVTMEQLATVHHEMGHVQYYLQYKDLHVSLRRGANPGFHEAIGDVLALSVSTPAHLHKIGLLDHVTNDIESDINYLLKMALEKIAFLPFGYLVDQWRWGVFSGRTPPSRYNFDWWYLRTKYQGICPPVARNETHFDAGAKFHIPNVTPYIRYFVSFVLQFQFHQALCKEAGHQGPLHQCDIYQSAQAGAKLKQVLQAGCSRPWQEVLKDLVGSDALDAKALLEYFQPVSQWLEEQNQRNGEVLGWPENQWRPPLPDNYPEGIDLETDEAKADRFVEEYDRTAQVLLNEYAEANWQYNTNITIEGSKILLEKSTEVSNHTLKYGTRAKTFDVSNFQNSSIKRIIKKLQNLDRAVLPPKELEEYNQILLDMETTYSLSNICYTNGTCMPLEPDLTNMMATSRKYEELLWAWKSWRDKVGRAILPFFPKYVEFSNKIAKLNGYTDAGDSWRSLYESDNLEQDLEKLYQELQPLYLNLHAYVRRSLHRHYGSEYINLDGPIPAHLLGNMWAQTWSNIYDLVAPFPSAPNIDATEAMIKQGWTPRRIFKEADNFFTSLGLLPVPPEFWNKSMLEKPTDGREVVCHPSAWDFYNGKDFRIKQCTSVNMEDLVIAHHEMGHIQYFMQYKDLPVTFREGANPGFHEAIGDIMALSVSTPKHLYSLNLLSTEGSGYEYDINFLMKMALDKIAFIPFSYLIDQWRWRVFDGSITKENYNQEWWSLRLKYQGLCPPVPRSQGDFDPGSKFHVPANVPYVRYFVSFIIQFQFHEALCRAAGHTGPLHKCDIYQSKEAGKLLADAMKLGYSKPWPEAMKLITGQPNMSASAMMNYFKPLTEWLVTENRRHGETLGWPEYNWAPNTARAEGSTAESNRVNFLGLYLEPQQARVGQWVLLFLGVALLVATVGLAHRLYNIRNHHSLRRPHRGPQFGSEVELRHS

[5] = target: ACE in human CD34+ cells (Homo sapiens, UniProt P12821); assay: ACE activity assay in human CD34+ cell lysates
ACE in human CD34+ cells, sequence (P12821 30-1306): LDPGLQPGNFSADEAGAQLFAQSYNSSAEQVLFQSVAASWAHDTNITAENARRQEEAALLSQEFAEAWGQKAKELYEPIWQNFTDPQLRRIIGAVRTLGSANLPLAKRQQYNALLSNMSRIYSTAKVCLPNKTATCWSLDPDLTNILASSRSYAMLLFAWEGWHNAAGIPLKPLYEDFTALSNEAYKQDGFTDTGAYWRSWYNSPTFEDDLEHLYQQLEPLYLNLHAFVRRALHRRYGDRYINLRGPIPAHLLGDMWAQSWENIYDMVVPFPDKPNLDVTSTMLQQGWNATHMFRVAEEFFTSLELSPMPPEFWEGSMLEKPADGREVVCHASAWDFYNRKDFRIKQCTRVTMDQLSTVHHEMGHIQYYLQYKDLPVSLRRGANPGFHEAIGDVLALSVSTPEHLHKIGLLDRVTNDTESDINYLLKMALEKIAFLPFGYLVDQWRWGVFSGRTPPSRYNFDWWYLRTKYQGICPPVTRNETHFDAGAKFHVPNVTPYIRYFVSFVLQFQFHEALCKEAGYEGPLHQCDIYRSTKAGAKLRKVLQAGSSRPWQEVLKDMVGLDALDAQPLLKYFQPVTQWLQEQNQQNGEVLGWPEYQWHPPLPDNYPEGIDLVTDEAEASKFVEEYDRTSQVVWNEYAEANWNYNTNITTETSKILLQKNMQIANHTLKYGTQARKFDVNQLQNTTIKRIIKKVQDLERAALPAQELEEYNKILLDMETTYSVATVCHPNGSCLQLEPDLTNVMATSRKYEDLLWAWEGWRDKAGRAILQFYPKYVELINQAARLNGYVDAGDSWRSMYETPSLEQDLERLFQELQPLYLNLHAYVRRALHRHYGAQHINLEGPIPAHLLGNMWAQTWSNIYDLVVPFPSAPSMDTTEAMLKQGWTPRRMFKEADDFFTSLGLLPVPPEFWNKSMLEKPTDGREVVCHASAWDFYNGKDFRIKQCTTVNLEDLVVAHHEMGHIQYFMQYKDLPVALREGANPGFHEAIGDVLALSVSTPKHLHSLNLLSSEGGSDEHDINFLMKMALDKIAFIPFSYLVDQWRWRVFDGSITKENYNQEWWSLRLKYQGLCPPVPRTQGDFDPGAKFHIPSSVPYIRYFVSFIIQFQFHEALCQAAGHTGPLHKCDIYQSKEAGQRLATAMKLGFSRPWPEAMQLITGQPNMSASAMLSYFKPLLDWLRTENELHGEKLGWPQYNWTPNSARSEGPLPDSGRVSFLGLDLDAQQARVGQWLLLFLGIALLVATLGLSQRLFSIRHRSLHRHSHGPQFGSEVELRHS

[6] = target: ACE2 in human CD34+ cells (Homo sapiens, UniProt Q9BYF1); assay: ACE2 activity assay in human CD34+ cell lysates; settings: for Imax at ACE2 in human CD34+ cells: cell lysate, 4 h, n=6
ACE2 in human CD34+ cells, sequence (Q9BYF1 18-805): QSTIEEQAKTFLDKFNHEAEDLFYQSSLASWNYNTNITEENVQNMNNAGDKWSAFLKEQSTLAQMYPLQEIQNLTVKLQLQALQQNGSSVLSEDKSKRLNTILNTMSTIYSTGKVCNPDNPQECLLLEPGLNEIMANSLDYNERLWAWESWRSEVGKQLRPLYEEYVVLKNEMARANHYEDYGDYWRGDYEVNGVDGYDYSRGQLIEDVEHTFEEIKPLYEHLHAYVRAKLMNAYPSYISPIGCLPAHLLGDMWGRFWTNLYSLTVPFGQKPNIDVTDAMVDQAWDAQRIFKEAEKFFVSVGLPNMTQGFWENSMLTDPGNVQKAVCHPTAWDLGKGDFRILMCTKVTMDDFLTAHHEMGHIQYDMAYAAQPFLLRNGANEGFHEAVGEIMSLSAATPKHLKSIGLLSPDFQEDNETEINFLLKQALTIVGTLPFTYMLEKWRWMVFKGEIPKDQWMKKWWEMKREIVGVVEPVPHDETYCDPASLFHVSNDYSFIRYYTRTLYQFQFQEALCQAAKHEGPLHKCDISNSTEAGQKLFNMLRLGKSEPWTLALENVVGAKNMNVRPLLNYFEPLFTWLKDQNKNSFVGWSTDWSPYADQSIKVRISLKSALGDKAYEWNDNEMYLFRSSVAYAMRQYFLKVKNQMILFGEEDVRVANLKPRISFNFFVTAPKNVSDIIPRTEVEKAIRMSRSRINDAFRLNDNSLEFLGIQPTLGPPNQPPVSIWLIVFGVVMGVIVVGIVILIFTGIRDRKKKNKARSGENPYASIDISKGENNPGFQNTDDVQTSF

[7] = target: Human MNC ACE (Homo sapiens, UniProt P12821); assay: ACE activity assay in human mononuclear cell lysates; settings: cell lysate 10 μg protein, 4 h
Human MNC ACE, sequence (P12821 30-1306): as the sequence (P12821 30-1306) above

[8] = target: Human MNC ACE2 (Homo sapiens, UniProt Q9BYF1); assay: ACE2 activity assay in human mononuclear cell lysates; settings: for Imax at ACE2 in human MNCs: cell lysate 10 μg protein, 4 h
Human MNC ACE2, sequence (Q9BYF1 18-805): as the sequence (Q9BYF1 18-805) above

[9] = target: T2, Murine MNC ACE (Mus musculus, UniProt P09470); assay: ACE activity assay in murine mononuclear cell lysates
T2 sequence (P09470 35-1312): T1 sequence (P09470 35-1312)

[10] = target: Murine MNC ACE2 (Mus musculus, UniProt Q8R0I0); assay: ACE2 activity assay in murine mononuclear cell lysates
Murine MNC ACE2, sequence (Q8R0I0 18-805): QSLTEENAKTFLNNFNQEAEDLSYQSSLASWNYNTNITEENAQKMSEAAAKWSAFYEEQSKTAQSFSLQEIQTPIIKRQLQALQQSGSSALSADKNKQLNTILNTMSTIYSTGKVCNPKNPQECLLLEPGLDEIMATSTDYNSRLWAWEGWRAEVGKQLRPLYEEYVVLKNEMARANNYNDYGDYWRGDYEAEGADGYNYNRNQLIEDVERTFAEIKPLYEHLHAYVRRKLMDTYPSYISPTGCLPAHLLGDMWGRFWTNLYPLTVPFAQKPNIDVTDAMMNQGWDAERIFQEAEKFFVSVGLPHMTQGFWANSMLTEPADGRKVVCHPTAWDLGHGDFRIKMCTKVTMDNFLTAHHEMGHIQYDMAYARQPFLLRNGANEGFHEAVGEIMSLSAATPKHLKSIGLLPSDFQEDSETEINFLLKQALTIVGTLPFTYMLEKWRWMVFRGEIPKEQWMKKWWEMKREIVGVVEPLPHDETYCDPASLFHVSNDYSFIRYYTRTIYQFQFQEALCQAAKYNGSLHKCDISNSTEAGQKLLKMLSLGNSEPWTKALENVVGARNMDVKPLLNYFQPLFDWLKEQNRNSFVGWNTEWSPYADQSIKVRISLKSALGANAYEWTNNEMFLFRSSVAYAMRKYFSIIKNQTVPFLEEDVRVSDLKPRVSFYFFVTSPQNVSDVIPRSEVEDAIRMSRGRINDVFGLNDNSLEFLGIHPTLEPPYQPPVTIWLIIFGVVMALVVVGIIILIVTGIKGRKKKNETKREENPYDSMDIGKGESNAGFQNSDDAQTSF

[11] = recombinant enzyme, 50 μM substrate, pH 6.5, 1 h

Recombinant Human ACE2 (rhACE2), sequence (Q9BYF1 18-805): as the sequence (Q9BYF1 18-805) above
Recombinant Human ACE (rhACE), sequence (P12821 30-1306): as the sequence (P12821 30-1306) above

In the case of CC(C)C[C@H](N[C@@H](Cc1cncn1Cc1cc(Cl)cc(Cl)c1)C(=O)O)C(=O)O [isomer B, (2S)-2-[[(2S)-3-[3-[(3,5-dichlorophenyl)methyl]imidazol-4-yl]-1-hydroxy-1-oxopropan-2-yl]amino]-4-methylpentanoic acid], the Ki [1] is reported as 0.04 ± 0.005 µM, the IC50 ([1]; IC50, Recombinant Human ACE2) is reported as 0.01 ± 0.006 µM and the “Maximum inhibition (Imax) of rhACE2” value [1, 11] is reported as 80±3%. The inhibition at 10 µM ([2]; read-out: inhibition of rhACE activity) was 43%, the “Imax at rhACE” value [2, 11] was 46±1% and the IC50 [3] was 0.251 µM. The IC50 [4] was 63.1 µM, the IC50 [5] was 12.6 µM and the “Imax at ACE in human CD34+ cells” value ([5]; cell lysate, 4 h, n=6) was 19±2%. For the same molecule, the IC50 [6] was 0.316 µM, the “Imax at ACE2 in human CD34+ cells” value [6] was 38±4% and the “Imax at ACE2 in human CD34+ cells” value ([6]; listed as MLN-4760-B) was 38%. The “Imax at ACE in human MNCs” value [7] was 34±1%, the Ki [8] was 0.2 ± 0.01 µM and the IC50 ([8]; IC50, Human ACE2 (human MNCs)) was 0.5 ± 0.03 µM. For the same molecule, the “Imax at ACE2 in human MNCs” value [8] was 63±2%, the “Imax at ACE2 in human MNCs” value ([8]; listed as MLN-4760-B) was 63% and the IC50 [9] was 20 µM. For the same molecule, the Ki [10] was 2.1 ± 0.2 µM and the IC50 ([10]; pIC50 at ACE2 in murine MNCs, cell lysate, 4 h) was 0.0794 µM.
